What was measured:
NCI-H522 = assay: Anticancer activity against human NCI-H522 cells assessed as cell growth inhibition incubated for 48 hrs by SRB assay; type: functional
K562 = assay: Anticancer activity against human K562 cells assessed as total cell growth inhibition incubated for 48 hrs by SRB assay; type: functional
SK-MEL-28 = assay: Anticancer activity against human SK-MEL-28 cells assessed as total cell growth inhibition incubated for 48 hrs by SRB assay; type: functional
MDA-MB-231 [1] = assay: Anticancer activity against human MDA-MB-231 cells assessed as cell growth inhibition incubated for 48 hrs by SRB assay; type: functional
RPMI-8226 = assay: Anticancer activity against human RPMI-8226 cells assessed as total cell growth inhibition incubated for 48 hrs by SRB assay; type: functional
MOLT-4 [2] = assay: Anticancer activity against human MOLT-4 cells assessed as total cell growth inhibition incubated for 48 hrs by SRB assay; type: functional
MDA-MB-468 = assay: Anticancer activity against human MDA-MB-468 cells assessed as cell growth inhibition incubated for 48 hrs by SRB assay; type: functional
HCT-116 = assay: Anticancer activity against human HCT-116 cells assessed as total cell growth inhibition incubated for 48 hrs by SRB assay; type: functional
SK-MEL-2 = assay: Anticancer activity against human SK-MEL-2 cells assessed as cell growth inhibition incubated for 48 hrs by SRB assay; type: functional
HOP-92 = assay: Anticancer activity against human HOP-92 cells assessed as total cell growth inhibition incubated for 48 hrs by SRB assay; type: functional
SNB-19 [3] = assay: Anticancer activity against human SNB-19 cells assessed as cell growth inhibition incubated for 48 hrs by SRB assay; type: functional
786-0 = assay: Anticancer activity against human 786-0 cells assessed as cell growth inhibition incubated for 48 hrs by SRB assay; type: functional
A498 [4] = assay: Anticancer activity against human A498 cells assessed as total cell growth inhibition incubated for 48 hrs by SRB assay; type: functional
MDA-MB-231 [5] = assay: Anticancer activity against human MDA-MB-231 cells assessed as total cell growth inhibition incubated for 48 hrs by SRB assay; type: functional
OVCAR-4 = assay: Anticancer activity against human OVCAR-4 cells assessed as cell growth inhibition incubated for 48 hrs by SRB assay; type: functional
LOX IMVI = assay: Anticancer activity against human LOX IMVI cells assessed as cell growth inhibition incubated for 48 hrs by SRB assay; type: functional
MCF7 = assay: Anticancer activity against human MCF7 cells assessed as total cell growth inhibition incubated for 48 hrs by SRB assay; type: functional
HOP-62 = assay: Anticancer activity against human HOP-62 cells assessed as total cell growth inhibition incubated for 48 hrs by SRB assay; type: functional
SNB-19 [6] = assay: Anticancer activity against human SNB-19 cells assessed as total cell growth inhibition incubated for 48 hrs by SRB assay; type: functional
IGROV-1 = assay: Anticancer activity against human IGROV-1 cells assessed as total cell growth inhibition incubated for 48 hrs by SRB assay; type: functional
SF-539 = assay: Anticancer activity against human SF-539 cells assessed as total cell growth inhibition incubated for 48 hrs by SRB assay; type: functional
HCT-15 [7] = assay: Anticancer activity against human HCT-15 cells assessed as cell growth inhibition incubated for 48 hrs by SRB assay; type: functional
SK-OV-3 = assay: Anticancer activity against human SK-OV-3 cells assessed as total cell growth inhibition incubated for 48 hrs by SRB assay; type: functional
ACHN = assay: Anticancer activity against human ACHN cells assessed as total cell growth inhibition incubated for 48 hrs by SRB assay; type: functional
EKVX = assay: Anticancer activity against human EKVX cells assessed as total cell growth inhibition incubated for 48 hrs by SRB assay; type: functional
NCI-H226 [8] = assay: Anticancer activity against human NCI-H226 cells assessed as total cell growth inhibition incubated for 48 hrs by SRB assay; type: functional
NCI-H322M = assay: Anticancer activity against human NCI-H322M cells assessed as total cell growth inhibition incubated for 48 hrs by SRB assay; type: functional
KM12 = assay: Anticancer activity against human KM12 cells assessed as total cell growth inhibition incubated for 48 hrs by SRB assay; type: functional
CCRF-CEM = assay: Anticancer activity against human CCRF-CEM cells assessed as cell growth inhibition incubated for 48 hrs by SRB assay; type: functional
A549 = assay: Anticancer activity against human A549 cells assessed as total cell growth inhibition incubated for 48 hrs by SRB assay; type: functional
U-251 = assay: Anticancer activity against human U-251 cells assessed as cell growth inhibition incubated for 48 hrs by SRB assay; type: functional
OVCAR-5 = assay: Anticancer activity against human OVCAR-5 cells assessed as total cell growth inhibition incubated for 48 hrs by SRB assay; type: functional
MOLT-4 [9] = assay: Anticancer activity against human MOLT-4 cells assessed as cell growth inhibition incubated for 48 hrs by SRB assay; type: functional
HL-60 = assay: Anticancer activity against human HL-60 cells assessed as total cell growth inhibition incubated for 48 hrs by SRB assay; type: functional
UACC-257 = assay: Anticancer activity against human UACC-257 cells assessed as total cell growth inhibition incubated for 48 hrs by SRB assay; type: functional
COLO 205 = assay: Anticancer activity against human COLO 205 cells assessed as cell growth inhibition incubated for 48 hrs by SRB assay; type: functional
OVCAR-3 = assay: Anticancer activity against human OVCAR-3 cells assessed as total cell growth inhibition incubated for 48 hrs by SRB assay; type: functional
M14 = assay: Anticancer activity against human M14 cells assessed as cell growth inhibition incubated for 48 hrs by SRB assay; type: functional
Hs-578T = assay: Anticancer activity against human Hs-578T cells assessed as total cell growth inhibition incubated for 48 hrs by SRB assay; type: functional
PC-3 = assay: Anticancer activity against human PC-3 cells assessed as cell growth inhibition incubated for 48 hrs by SRB assay; type: functional
OVCAR-8 = assay: Anticancer activity against human OVCAR-8 cells assessed as cell growth inhibition incubated for 48 hrs by SRB assay; type: functional
SN12C = assay: Anticancer activity against human SN12C cells assessed as cell growth inhibition incubated for 48 hrs by SRB assay; type: functional
NCI-H226 [10] = assay: Anticancer activity against human NCI-H226 cells assessed as cell growth inhibition incubated for 48 hrs by SRB assay; type: functional
HCC 2998 = assay: Anticancer activity against human HCC 2998 cells assessed as total cell growth inhibition incubated for 48 hrs by SRB assay; type: functional
SW-620 = assay: Anticancer activity against human SW-620 cells assessed as total cell growth inhibition incubated for 48 hrs by SRB assay; type: functional
HCT-15 [11] = assay: Anticancer activity against human HCT-15 cells assessed as total cell growth inhibition incubated for 48 hrs by SRB assay; type: functional
[12] = target: Dual specificity mitogen-activated protein kinase kinase 1 (Homo sapiens) (UniProt Q02750); assay: Inhibition of MEK1 (unknown origin) at 1 uM in presence of ATP by hotspot kinase assay
Sequence of Dual specificity mitogen-activated protein kinase kinase 1 (Homo sapiens) (Q02750 whole entry): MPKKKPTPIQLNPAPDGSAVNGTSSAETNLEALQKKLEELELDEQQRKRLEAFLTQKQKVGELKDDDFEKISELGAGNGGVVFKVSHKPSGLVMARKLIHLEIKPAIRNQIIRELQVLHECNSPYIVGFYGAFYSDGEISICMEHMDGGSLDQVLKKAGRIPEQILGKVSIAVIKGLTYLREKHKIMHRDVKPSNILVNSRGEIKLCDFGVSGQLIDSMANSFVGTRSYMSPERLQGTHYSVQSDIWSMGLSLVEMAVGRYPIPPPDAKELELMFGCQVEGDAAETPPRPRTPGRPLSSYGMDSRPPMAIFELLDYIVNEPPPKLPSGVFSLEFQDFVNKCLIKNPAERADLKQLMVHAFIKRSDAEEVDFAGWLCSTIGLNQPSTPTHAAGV

A498 [13] = assay: Anticancer activity against human A498 cells assessed as cell growth inhibition incubated for 48 hrs by SRB assay; type: functional
RXF 393 = assay: Anticancer activity against human RXF 393 cells assessed as cell growth inhibition incubated for 48 hrs by SRB assay; type: functional

## COc1cc2cc(Oc3ccc(NC(=O)Nc4ccc(F)c(C(F)(F)F)c4)cc3)c(C)nc2cc1OCCN1CCOCC1
NCI-H522
  GI50: 2.04 µM
K562
  TGI: 10.3 µM
SK-MEL-28
  TGI: 3.13 µM
MDA-MB-231 [1]
  GI50: 2.83 µM
RPMI-8226
  TGI: 4.25 µM
MOLT-4 [2]
  TGI: 11.4 µM
MDA-MB-468
  GI50: 0.45 µM
HCT-116
  TGI: 11.2 µM
SK-MEL-2
  GI50: 2.38 µM
HOP-92
  TGI: 4.96 µM
SNB-19 [3]
  GI50: 3.96 µM
786-0
  GI50: 1.73 µM
A498 [4]
  TGI: 10.2 µM
MDA-MB-231 [5]
  TGI: 9.02 µM
OVCAR-4
  GI50: 0.71 µM
LOX IMVI
  GI50: 1.44 µM
MCF7
  TGI: 3.48 µM
HOP-62
  TGI: 20.5 µM
SNB-19 [6]
  TGI: 19.3 µM
IGROV-1
  TGI: 19.5 µM
SF-539
  TGI: 3.44 µM
HCT-15 [7]
  GI50: 1.73 µM
SK-OV-3
  TGI: 26.7 µM
ACHN
  TGI: 11.4 µM
EKVX
  TGI: 20.7 µM
NCI-H226 [8]
  TGI: 13.2 µM
NCI-H322M
  TGI: 13.6 µM
KM12
  TGI: 10.6 µM
CCRF-CEM
  GI50: 1.72 µM
A549
  TGI: 34.3 µM
U-251
  GI50: 2.83 µM
OVCAR-5
  TGI: 21.7 µM
MOLT-4 [9]
  GI50: 1.86 µM
HL-60
  TGI: 6.14 µM
UACC-257
  TGI: 5.18 µM
COLO 205
  GI50: 1.87 µM
OVCAR-3
  TGI: 13.6 µM
M14
  GI50: 1.53 µM
Hs-578T
  TGI: 8.9 µM
PC-3
  GI50: 1.44 µM
OVCAR-8
  GI50: 2.73 µM
SN12C
  GI50: 2.65 µM
NCI-H226 [10]
  GI50: 2.55 µM
HCC 2998
  TGI: 16.7 µM
SW-620
  TGI: 9.86 µM
HCT-15 [11]
  TGI: 4.19 µM
[12]
  inhibition: 13.1%
A498 [13]
  GI50: 2.8 µM
RXF 393
  GI50: 1.78 µM
